# Experimental data taken from article PMC7044166 (Scientific Reports, 2020).
# “And” between values parts separate entries of the source, which are not always exact repeats. Equal values may be shown once. Read-outs that look alike come from different tables or passages of the source.
# What was measured:
# [1] = Pharmacokinetic interaction study of DSV and TAM/TOH after oral single or co-administration to Wistar rats (UPLC-MS/MS of plasma, NCA); assay type: in vivo; conditions: for change in PK parameters following co-administration compared with single administration: Group III (DSV 50 mg/kg + TAM 10 mg/kg, oral) vs Group I (DSV) and Group II (TAM), only exception tmax of TOH; for AUC(0-inf) / Tmax / half-life / Cmax: male, Wistar, rat, plasma, po, mean ± SD, n = 5; for half-life: read-out: t½ (converted); for Cmax: rat plasma; for M.R.(%) metabolite ratio: ratio of AUC0-∞ of TOH to that of TAM, rats
# Procedure: The rats were acclimatized for seven days before starting the experiment. All rats were kept in a well-ventilated room and under standard laboratory conditions; 12 h day/night cycle, average temperature of 25 ± 2 °C, and average relative humidity of 50 ± 2%.
# Three group of randomly distributed rats (n = 5) were used to conduct the study. […] Following drug administration, orbital blood samples (0.3 mL) were collected into a series of 1.5 mL polythene heparinized tubes prior to dosing (0 time) and at different time intervals following the drug administration; 0.25, 0.5, 1, 2, 4, 5, 12, 24, and 48 h. Immediate centrifugation (4,500 rpm) of collected blood samples was performed at 4 °C for 30 min. The resulting plasma samples were then stored at −20 °C until the day of analysis. Plasma samples (50 µL) were separately mixed with 50 µL OND, IS, (50 ng/mL), 150 µL of 2% formic acid, and finally completed to 1-mL volume with acetonitrile. Sample preparation was then carried out exactly as mentioned under the experimental section. […] These concentrations were then plotted versus the corresponding withdrawal time.
# Plasma concentration-time data were treated by the non-compartmental analysis (NCA) method using PKSolver Add-In Excel 2010. Different PK parameters were calculated. They included maximum drug plasma concentration (Cmax) and the time required to reach the maximum plasma concentration (tmax). Both Cmax and tmax were derived from plasma concentration-time curve simply by visual inspection of the data. Using the PKSover, the elimination rate constant (Kel), the half-life (t1/2), the area under the plasma concentration-time curve from 0 time to the last sampling time t (AUC0-t), the area under the plasma concentration-time curve from 0 time to ∞ (AUC0-∞), and the apparent oral clearance (CL/F) were calculated. Kel was calculated from the slope of the plasma concentration-time curve during the elimination phase and from which t1/2 was derived, t1/2 = 0.693/Kel. The linear trapezoidal rule was used to calculate AUC0-t. The summation of AUC0-t and the extrapolated area from time t to ∞, calculated from the last measured concentration (Clast), result in total AUC from 0 time to ∞, AUC0-∞, AUC0-∞ = AUC0-t + (Clast/Kel). CL/F was calculated by dividing the dose by AUC0-∞. The relative bioavailability (R.B.) was obtained from the ratio of AUC0-∞ of the treated group to AUC0-∞ of the control group.
# [2] = design: method as in earlier work; conditions: cited from earlier work
# [3] = Stability of DSV, TAM and TOH in rat plasma under storage and treatment conditions; assay type: in vitro ADME; conditions: six determinations; for recovery at 56 h / recovery at 6 h / recovery / recovery at 30 days: Wistar, rat, rat plasma; for recovery at 56 h: rat plasma (prepared QC samples in the auto-injector), 10 °C, read-out: Auto-sampler stability, mean recovery (%) ± RSD; for recovery at 6 h / recovery / recovery at 30 days: rat plasma (spiked QC samples); for recovery at 6 h: 25 °C, read-out: Short-term stability, mean recovery (%) ± RSD; for recovery / recovery at 30 days: −30 °C; for recovery: 3 cycles, read-out: Freeze-thaw stability, mean recovery (%) ± RSD; for recovery at 30 days: read-out: Long-term stability, mean recovery (%) ± RSD; for recovery at 3 months: analyte solutions, 4 °C, read-out: Refrigerator stability, mean recovery (%) ± RSD
# Procedure: This ensures that no detectable degradation was noticed and that all analytes were stable under the studied conditions. The analytes’ solutions were also stable when kept refrigerated at 4 °C for 3 months or at room temperature for up to 6 h.
# Samples were subjected to different storage conditions. Auto-sampler stability was assessed by leaving prepared samples in the auto-injector (10 °C, 56 h) before the injection. Short-term (bench top) stability was evaluated by analyzing samples after being stored at room temperature (25 °C, 6 h). On the other hand, long-term stability was assessed by analyzing samples which had been frozen before analysis (−30 °C, 30 days). Stability of samples was also assessed following three freeze–thaw cycles (frozen at −30 °C, thawed at 25 °C).
# [4] = tested on: estrogen-dependent cell proliferation; conditions: relative to TAM, cited from earlier work
# [5] = oral co-administration of DSV 50 mg/kg and TAM 10 mg/kg (TOH as metabolite of TAM)
# [6] = single oral administration, DSV 50 mg/kg or TAM 10 mg/kg (TOH as metabolite of TAM)
# [7] = high concentration level (800, 400, 400 ng/mL for DSV, TAM, TOH)
change in PK parameters following co-administration compared with single administration [1],"AUC(0-inf) [1, 5] [ng·h/mL]","Tmax [1, 5] [h]","half-life [1, 5] [h]","Cmax [1, 5] [ng/mL]","AUC(0-inf) [1, 6] [ng·h/mL]","Tmax [1, 6] [h]","half-life [1, 6] [h]","Cmax [1, 6] [ng/mL]","recovery at 56 h [3, 7] [%]",recovery at 56 h ([3]; low concentration level) [%],"recovery at 6 h [3, 7] [%]",recovery at 6 h ([3]; low concentration level) [%],recovery ([3]; low concentration level) [%],"recovery at 30 days [3, 7] [%]",recovery at 30 days ([3]; low concentration level) [%],"recovery at 3 months [3, 7] [%]",recovery at 3 months ([3]; low concentration level) [%],Structure (SMILES),other results
no significant changes,4660 ± 687,4.98 ± 0.61,19.7 ± 5.41,159 ± 49,4270 ± 754,4.95 ± 1.07,17.9 ± 5.93,144 ± 26.5,98.5,95.5,95,96.3,98.5,98.8,96.8,97.6,96.2,"COc1c(-c2ccc3cc(NS(C)(=O)=O)ccc3c2)cc(-n2ccc(=O)[nH]c2=O)cc1C(C)(C)C [DSV, Dasabuvir]",pKa (pK1) [2]: 8.2; pKa (pK2) [2]: 9.2
–,3510 ± 464,3.03 ± 0.66,17.7 ± 3.42,288 ± 81,3880 ± 407,2.03 ± 0.95,15.8 ± 5.18,307 ± 109,93.5,98.2,96.8,98.2,96.1,97.3,99.7,96.6,98.9,"CC/C(=C(\c1ccccc1)c1ccc(OCCN(C)C)cc1)c1ccccc1 [TAM, Tamoxifen]",–
no significant changes,4550 ± 913,5.03 ± 0.66,19.7 ± 1.41,164 ± 54.5,4730 ± 774,2.03 ± 0.95,28.8 ± 1.98,172 ± 54,95.2,99.7,98.9,96.9,97.5,95.8,99,97,98,"CC/C(=C(\c1ccc(O)cc1)c1ccc(OCCN(C)C)cc1)c1ccccc1 [TOH, 4-hydroxy tamoxifen]","M.R.(%) metabolite ratio ([1]; oral co-administration of DSV 50 mg/kg and TAM 10 mg/kg): 129.65 ± 10.88%; M.R.(%) metabolite ratio ([1]; single oral TAM 10 mg/kg): 121.86 ± 11%; reported estrogenic properties, times more potent than TAM ([4]; at least, reported): 30–100 times; times more potent than TAM in inhibiting estrogen-dependent cell proliferation [4]: 30 to 100 times; pka [2]: 8.66 and 9.45"
